From patent US20070117743A1, “New antitumoral compounds” (priority 2003, published 2007)
Where a SMILES comes first, the peptide text is derived from it. Bridges are numbered along the chain shown (N, C = ends). [ ]: non-standard residue; d: D form. The star is where a group is joined. d(aIle) = CC[C@H](C)[C@@H](N)C(=O)O; d(aThr) = C[C@@H](O)[C@@H](N)C(=O)O; Hexanoyl(5-Me) = CC(C)CCCC(=O)*; Orn = NCCC[C@H](N)C(=O)O; Dhb = C/C=C(\N)C(=O)O

What was measured:
Format in all cases: cell-based, human
SK-BR-3 = test: SRB colorimetric assay of cell growth and viability, SK-BR-3; details: 48 hours exposure
Text: The finality of this assay is to interrupt the growth of a “in vitro” tumor cell culture by means a continued exhibition of the cells to the sample to be testing.
This form of the assay employs 96 well cell culture microplates of 9 mm diameter (Faircloth, 1988; Mosmann, 1983). Most of the cell lines are obtained from American Type Culture Collection (ATCC) derived from different human cancer types.
Cells are maintained in RPMI 1640 10% FBS, supplemented with 0.1 g/l penicillin and 0.1 g/l streptomycin sulfate and then incubated at 37° C., 5% CO2 and 98% humidity. For the experiments, cells were harvested from subconfluent cultures using trypsin and resuspended in fresh medium before plating.
Cells are seeded in 96 well microtiter plates, at 5×10^3 cells per well in aliquots of 195 μL medium, and they are allowed to attach to the plate surface by growing in drug free medium for 18 hours. Afterward, samples are added in aliquots of 5 μL in a ranging from 10 to 10^−8 μg/mL, dissolved in DMSO:EtOH:PBS (0.5:0.5:99). After 48 hours exposure, the antitumor effect are measured by the SRB methodology: cells are fixed by adding 50 μL of cold 50% (wt/vol) trichloroacetic acid (TCA) and incubating for 60 minutes at 4° C. Plates are washed with deionized water and dried. One hundred μL of SRB solution (0.4% wt/vol in 1% acetic acid) is added to each microtiter well and incubated for 10 minutes at room temperature. Unbound SRB is removed by washing with 1% acetic acid. Plates are air dried and bound stain is solubilized with Tris buffer. Optical densities are read on a automated spectrophotometric plate reader at a single wavelength of 490 nm.
The values for mean+/− SD of data from triplicate wells are calculated. Some parameters for cellular responses can be calculated: GI=growth inhibition, TGI=total growth inhibition (cytostatic effect) and LC=cell killing (cytotoxic effect).

K-562 = test: SRB colorimetric assay of cell growth and viability, K-562; details: K-562, 48 hours exposure; for CC50: read-out: LC50 K-562
A-549 = test: SRB colorimetric assay of cell growth and viability, A-549; details: A-549, 48 hours exposure; for GI50: read-out: GI50 A-549; for CC50: read-out: LC50 A-549
LoVo-Dox = test: SRB colorimetric assay of cell growth and viability, LoVo-Dox; details: LOVO-DOX, 48 hours exposure; for CC50: read-out: LC50 LOVO-DOX
Procedure, shortened: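 Cells in RPMI 1640 with 10% FBS were seeded at 5×10^3 per well and left 18 hours drug-free before compounds (10 to 10^−8 μg/mL in DMSO:EtOH:PBS 0.5:0.5:99) were added for 48 hours. TCA-fixed cells were stained with SRB and read at 490 nm; triplicate wells gave GI, TGI and LC.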

LoVo = test: SRB colorimetric assay of cell growth and viability, LoVo; details: LOVO, 48 hours exposure
PANC-1 = test: SRB colorimetric assay of cell growth and viability, PANC-1; details: PANC-1, 48 hours exposure; for CC50: read-out: LC50 PANC-1
HeLa = test: SRB colorimetric assay of cell growth and viability, HeLa; details: HELA, 48 hours exposure; for CC50: read-out: LC50 HELA
SK-MEL-28 = test: SRB colorimetric assay of cell growth and viability, SK-MEL-28; details: 48 hours exposure; for CC50: read-out: LC50 MEL-28
IGROV-1 = test: SRB colorimetric assay of cell growth and viability, IGROV-1; details: 48 hours exposure
DU-145 = test: SRB colorimetric assay of cell growth and viability, DU-145; details: 48 hours exposure
IGROV-ET = test: SRB colorimetric assay of cell growth and viability, IGROV-ET; details: 48 hours exposure; for CC50: read-out: LC50 IGROV-ET
HT-29 = test: SRB colorimetric assay of cell growth and viability, HT-29; details: HT-29, 48 hours exposure; for GI50: read-out: GI50 HT-29; for CC50: read-out: LC50 HT-29
HeLa-APL = test: SRB colorimetric assay of cell growth and viability, HeLa-APL; details: HELA-APL, 48 hours exposure

SMILES: [2H]C([2H])([2H])C([2H])(C([2H])([2H])[2H])[C@]([2H])(NC(=O)[C@@H](NC(=O)[C@H](NC(=O)CCCC(C)C)C(C)C)[C@@H](C)O)C(=O)N[C@@H](C(=O)N1CCC[C@@H]1C(=O)N[C@@H](CCCN)C(=O)N[C@@H](C(=O)N[C@H]1C(=O)N[C@H]([C@@H](C)CC)C(=O)N[C@H](C(C)C)C(=O)N[C@@H](Cc2ccccc2)C(=O)N/C(=C\C)C(=O)N[C@@H](C(C)C)C(=O)O[C@@H]1C)[C@@H](C)CC)C(C)C [Compound 100, [L-Val-d8^11]-KF]
- GI50 (SK-BR-3; SRB): 0.348 µM
- TGI SK-BR-3 (SK-BR-3; SRB): 8.19E−07 Molar
- LC50 (SK-BR-3; SK-BR-3): 1.45 µM
- GI50 (K-562): 1.88 µM
- TGI K-562 (K-562): 1.88E−06 Molar
- CC50 (K-562): 1.88 µM
- TGI A-549 (A-549): 1.88E−06 Molar
- GI50 (A-549): 1.88 µM
- CC50 (A-549): 1.88 µM
- GI50 (LoVo-Dox): 0.123 µM
- TGI LOVO-DOX (LoVo-Dox): 6.88E−07 Molar
- CC50 (LoVo-Dox): 1.38 µM
- GI50 (LoVo): 0.181 µM
- TGI LOVO (LoVo): 6.38E−07 Molar
- CC50 (LoVo; read-out: LC50 LOVO): 1.26 µM
- GI50 (PANC-1): 1.88 µM
- TGI PANC-1 (PANC-1): 1.88E−06 Molar
- CC50 (PANC-1): 1.88 µM
- GI50 (HeLa): 0.681 µM
- TGI HELA (HeLa): 1.15E−06 Molar
- CC50 (HeLa): 1.88 µM
- GI50 (SK-MEL-28; SRB): 0.963 µM
- TGI MEL-28 (SK-MEL-28; SRB): 1.46E−06 Molar
- CC50 (SK-MEL-28; MEL-28): 1.88 µM
- GI50 (IGROV-1; SRB): 0.781 µM
- TGI IGROV (IGROV-1; SRB): 1.16E−06 Molar
- LC50 (concentration causing 50% net cell killing) (IGROV-1; IGROV): 1.73 µM
- GI50 (DU-145; SRB): 0.544 µM
- TGI DU-145 (DU-145; SRB): 9.69E−07 Molar
- LC50 (concentration causing 50% net cell kill) (DU-145; DU-145): 1.59 µM
- GI50 (IGROV-ET; SRB): 0.399 µM
- TGI IGROV-ET (IGROV-ET; SRB): 7.63E−07 Molar
- CC50 (IGROV-ET; IGROV-ET): 1.75 µM
- TGI HT-29 (HT-29): 6.50E−07 Molar
- GI50 (HT-29): 0.318 µM
- CC50 (HT-29): 1.18 µM

SMILES: C/C=C1\NC(=O)[C@H](Cc2ccccc2)NC(=O)[C@@H](C(C)C)NC(=O)[C@@H]([C@@H](C)CC)NC(=O)[C@H](NC(=O)[C@H](NC(=O)[C@H](CCCN)NC(=O)[C@H]2CCCN2C(=O)[C@H](NC(=O)[C@@H](NC(=O)[C@H](CCC(N)=O)NC(=O)[C@H](NC(=O)CCCC(C)C)C(C)C)C(C)C)C(C)C)[C@@H](C)CC)[C@@H](C)OC(=O)[C@H](C(C)C)NC1=O [Compound 119, [Gln^12]-KF] ({Hexanoyl(5-Me)}-[dV]QV[dV][dP][Orn][d(aIle)][d(aThr)][d(aIle)][dV]F[Dhb]V; ester 8-C)
- GI50 (SK-BR-3; SK-BR-3): 0.258 µM
- LC50 (SK-BR-3; SK-BR-3): 1.56 µM
- TGI SK-BR-3 (SK-BR-3; SK-BR-3): 5.34E−07 Molar
- GI50 (K-562): 1.99 µM
- TGI K-562 (K-562): 1.99E−06 Molar
- CC50 (K-562): 1.99 µM
- GI50 (HeLa-APL): 1.99 µM
- TGI HELA-APL (HeLa-APL): 1.99E−06 Molar
- CC50 (HeLa-APL; read-out: LC50 HELA-APL): 1.99 µM
- TGI A-549 (A-549): 1.99E−06 Molar
- GI50 (A-549): 1.99 µM
- CC50 (A-549): 1.99 µM
- GI50 (LoVo-Dox): 0.591 µM
- TGI LOVO-DOX (LoVo-Dox): 1.16E−06 Molar
- CC50 (LoVo-Dox): 1.99 µM
- GI50 (PANC-1): 1.99 µM
- TGI PANC-1 (PANC-1): 1.99E−06 Molar
- CC50 (PANC-1): 1.99 µM
- GI50 (HeLa): 0.379 µM
- TGI HELA (HeLa): 6.64E−07 Molar
- CC50 (HeLa): 1.99 µM
- GI50 (SK-MEL-28; MEL-28): 1.99 µM
- TGI MEL-28 (SK-MEL-28; MEL-28): 1.99E−06 Molar
- CC50 (SK-MEL-28; MEL-28): 1.99 µM
- GI50 (IGROV-1; IGROV): 0.651 µM
- LC50 (concentration causing 50% net cell killing) (IGROV-1; IGROV): 1.74 µM
- TGI IGROV (IGROV-1; IGROV): 1.07E−06 Molar
- GI50 (DU-145; DU-145): 1.99 µM
- LC50 (concentration causing 50% net cell kill) (DU-145; DU-145): 1.99 µM
- TGI DU-145 (DU-145; DU-145): 1.99E−06 Molar
- GI50 (IGROV-ET; IGROV-ET): 0.764 µM
- TGI IGROV-ET (IGROV-ET; IGROV-ET): 1.37E−06 Molar
- CC50 (IGROV-ET; IGROV-ET): 1.99 µM
- TGI HT-29 (HT-29): 1.35E−06 Molar
- GI50 (HT-29): 0.864 µM
- CC50 (HT-29): 1.99 µM
